Source: patent EP1024807B1, “USE OF THE COMPOUND 2-METHOXYPHENYL-1-METHYL-5P-METHYLBENZOYL-PYRROL-2-ACETAMIDO ACETATE FOR THE PRODUCTION OF AN ANTI-INFLAMMATORY DRUG WITH PREVENTION OF GASTRIC HYPERSECRETION AND RENAL IMPAIRMENT” (MEDOSAN Ricerca S.r.l., priority 1997, dated 1999)
“Also recorded” adds a separate entry of the source.

Assays:
[1] = system: patients with rheumatoid arthritis in the active phase; assay: Clinical trials in rheumatoid arthritis; assay type: in vivo, man; details: 150 patients, 30 days; versus ibuprofen, indomethacin, piroxicam, tolmetin; listed as Amtolmetin guacyl
From the text: Amtolmetin guacyl was compared with ibuprofen, indomethacin, piroxicam and tolmetin.

[2] = system: extra-articular rheumatism; assay: Clinical trials in extra-articular rheumatism; assay type: in vivo, man; details: 90 patients, 14 days; versus diclofenac, naproxen, piperazine propionate
From the text: In extra-articular rheumatism amtolmetin guacyl was compared with diclofenac, naproxen and piperazine propionate.

Salmonella Typhimurium = assay type: cell-based
Saccharomycetes pombe Pl = assay type: cell-based
gastric mucosa = assay: Gastroprotective action in vivo with an H1 receptor inhibitor; set-up: species or system rat; details: in the presence of an inhibitor of H1 receptors, fig. 17 and 18
From the text: In the in vivo experimentation, evaluated as effect of the product both on gastric mucosal secretion and on the healthy condition of the mucosa itself, it was noted that in the presence of an inhibitor of H1 receptors (therefore a typical antihistamine agent), the gastroprotective effect of amtolmetin guacyl drops out. […] All of this constitutes a precise forewarning of the association of amtolmetin guacyl with H1 receptor inhibiting substances on pain of loss of the gastroprotective properties of the former (fig. 17 and 18).

rat [3] = assay: Fertility, embryotoxicity and teratogenicity studies; assay type: in vivo
H2 receptors = target: T1, H2 receptors (Cavia porcellus, UniProt P47747); assay: Isolated atrium, histamine stimulation; details: guinea-pig atrium, fig. 5
T1 construct: using an organ in which only H2 receptors were present (guinea-pig atrium); from tissue; host or cells: guinea-pig atrium
From the text: On the basis of the above series of observations, we decided to study the pharmacological behaviour of a number of widely used NSAIDs (including amtolmetin guacyl) towards the gastric mucosa in the rat, as previously described. […] The first hypothesis was that we were deling with an anti-H2 drug, given the fact that its potency could be compared with that of cimetidine.

[4] = system: guinea-pig isolated ileum; assay: Intestinal motility in isolated ileum with various agonists; details: all of the traditional agonists (histamine, acetylcholine, serotonin)
From the text: In parallel we also studied the possible effect on intestinal motility in the guinea-pig isolated ileum (b.r. No. 29) using various agonists (fig. 7, 8 and 9).

Rats [5] = assay: Diuresis in normally hydrated rats; assay type: in vivo
Method: In the course of various studies conducted on animals to show the lack of renal impairment, a test was carried out to compare the diuresis in normally hydrated rats treated orally for 8 consecutive days with amtolmeting guacyl and diclofenac, which is also a NSAID. […] It is to be stressed that the behaviour of diclofenac is completely in line with the behaviour of a NSAID as known in the art, that is to say to markedly reduce the diuresis, while that of amtolmeting guacyl is completely unforeseeable.
Repeated doses (one per day) for 8 days increased diuresis in the treated rats by 35% (see fig. 13).

rabbit = assay: Fertility, embryotoxicity and teratogenicity studies; assay type: in vivo
[6] = system: rat isolated stomach strips; assay: Gastric motility in isolated stomach strips, acetylcholine and serotonin as agonists; details: acetilcholine and serotonin as agonists
[7] = Persistence of intact molecule in gastric and intestinal walls; assay type: in vivo; details: after oral administration in the rat
Method: The presence of the vanilloid radical, essential to the expression of the gastroprotective mechanism, is guaranteed by the prolonged persistence of high amounts of intact amtolmetin guacyl molecule in the gastric and intestinal walls (at least 2 hours after oral administration in the rat).

Rats [8] = assay: Carrageenan pleurisy, exudate volume at 4 hours; assay type: in vivo; details: for Exudate volume: 4 hour; for decrease exudate volume: compared to gum tragacanth control
Method: Compounds were administered orally 1 hour prior to and 1 hour post pleurisy induction in a volume of 0.5 ml 1% gum tragacanth. Indomethacin was used at 3 mg/kg. MED 15 was used at 25, 50 and 100 mg/kg.
A 1% solution of carrageenan in sterile saline was prepared. The solution was placed in an incubator at 37°C for half an hour to allow complete hydration of the carrageenan. The solution was then mixed to homogeneity.
A 21Gx40mm syringe needle was reduced in length to 5mm and fitted to a 1ml syringe containing the irritant. Rats were lightly anaesthetised with halothane. Each animal was placed on its left side. The skin over the thorax was lifted with and a 1cm incision made through the skin with a pair of scissors. The wound was opened to expose the underlying muscle. Using a scalpel, a 2-3mm incision was made into the muscle of the 5th-6th intercostal space. A volume of 0.15ml of carrageenan solution was then injected into the pleural cavity. The wound was closed with a 11mm Michel clip and the animal allowed to recover from the anaesthetic. Groups of animals were killed 4 hours after pleurisy induction.
Lavage solution: One part of 3.15% trisodium citrate solution, mixed with nine parts of Hank's balanced salt solution.
Rats were killed by over exposure to carbon dioxide. For each rat the skin over the thorax was moistened with IMS alcohol. The skin over the sternum was then lifted and a 5cm cut made, to expose the musculature of the upper abdomen and thoracic cavity. The muscle overlying the xiphisternum was lifted with tissue forceps and a 1cm cut made through the muscle to reveal the cartilage. This was then lifted and the diaphragm perforated just beneath the cartilage. Two cuts were then made through the rib cage either side of the cartilage to form a flap which could be folded back to expose the thoracic cavity.
Using a syringe, 1ml of lavage fluid was introduced into the thoracic cavity. The fluid was aspirated 2-3 times with a 3ml pastette to wash the cavity, before being collected into separate 10ml conical-based plastic test-tubes. Any blood contaminated fluids were rejected.
The mass of each tube with fluid was determined. By subtracting the mass of an empty tube from these values, and assuming a density for the fluid of 1g/cm^3, the fluid volume was quantified.
Results were analysed by ANOVA followed by Bonferroni T-test. Values of p<0.05 were considered significant.
Dosing was one hour prior to and one hour post pleurisy induction and inflammation was assessed at 4 hours.

Anaesthetized Rat = assay: Drug safety trials: blood pressure and cardiovascular system; details: in vivo
From the text: From a toxicological viewpoint the drug offers an excellent torability profile.

Cynomolgous monkey = assay: Chronic oral administration for 52 weeks, gastric damage; assay type: in vivo
[9] = system: gastric bicarbonate secretion; assay: Gastric bicarbonate secretion after stimulation with histamine; assay type: in vivo, rat; details: fig. 6
rat [10] = assay: Carcinogenesis studies, gavage over the life-span; assay type: in vivo; details: gavage for a period covering the animal's life-span
gastric PGE2 = assay: Effect on gastric PGE2 in the rat; assay type: in vivo
From the text: Moreover, as with all the NSAIDs currently aveilable, it inhibits gastric PGE2 in the rat, albeit to a lesser degree than ASA (Table 7).

T1 sequence (P47747 whole entry): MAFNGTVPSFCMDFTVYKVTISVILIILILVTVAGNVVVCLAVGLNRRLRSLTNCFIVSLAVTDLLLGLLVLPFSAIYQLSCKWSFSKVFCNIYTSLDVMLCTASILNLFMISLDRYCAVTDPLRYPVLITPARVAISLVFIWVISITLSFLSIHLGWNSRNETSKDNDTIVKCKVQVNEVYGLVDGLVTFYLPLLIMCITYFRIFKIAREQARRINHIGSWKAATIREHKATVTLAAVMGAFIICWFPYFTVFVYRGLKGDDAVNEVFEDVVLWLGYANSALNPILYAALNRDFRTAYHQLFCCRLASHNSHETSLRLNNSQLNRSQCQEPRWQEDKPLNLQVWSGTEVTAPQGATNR

Q: Which “Evaluation of antiphlogistic activity” value [1] does the source give for `COc1ccccc1OC(=O)CNC(=O)Cc1ccc(C(=O)c2ccc(C)cc2)n1C` [MED 15, 2-methoxyphenyl-1-methyl-5p-methylbenzoylpyrrol-2-acetamido acetate] here?
A: significantly more rapid and marked anti-inflammatory activity compared to the reference NSAIDs; also recorded: Amtolmetin guacyl demonstrated statistical significant activity more rapid and more marked when compared to the reference NSAIDs in rheumatoid arthritis

Q: And the “Evaluation of antiphlogistic activity” value [2]?
A: In this indication no significant differences were noted between amtolmetin guacyl and the reference compounds.

Q: And the Ames test (Salmonella Typhimurium)?
A: absence of amtolmetin guacyl-related damage

Q: And the forward mutation (Saccharomycetes pombe Pl)?
A: absence of amtolmetin guacyl-related damage

Q: What about the gastroprotective effect (gastric mucosa) of the same molecule?
A: drops out

Q: And the “fertility, embriotoxicity and teratogenicity” value (rat [3])?
A: safety

Q: And the “interference with the H2 receptors” value (H2 receptors)?
A: did not interfere with the H2 receptors

Q: And the motility [4]?
A: decrease in motility

Q: What about the increased diuresis (Rats [5]; repeated doses (one per day) for 8 days) of the same molecule?
A: 35%

Q: And the increased diuresis (Rats [5]; single dose, average)?
A: 10%

Q: What about the diuresis (Rats [5]; treated orally for 8 consecutive days, fig. 13) of the same molecule?
A: definite increase in diuresis

Q: What about the “fertility, embriotoxicity and teratogenicity” value (rabbit) of the same molecule?
A: safety

Q: And the motility [6]?
A: down-regulation of motility

Q: And the “persistence of high amounts of intact molecule in the gastric and intestinal walls” value [7]?
A: at least 2 hours

Q: And the “Exudate volume” value (Rats [8]; 25mg/kg orally 1 hour prior to and 1 hour post induction)?
A: 0.84 ± 0.09 mL

Q: What about the decrease exudate volume (Rats [8]; 25mg/kg) of the same molecule?
A: 11%

Q: And the “Exudate volume” value (Rats [8]; 50mg/kg orally 1 hour prior to and 1 hour post induction)?
A: 0.74 ± 0.06 mL

Q: What about the decrease exudate volume (Rats [8]; 50mg/kg) of the same molecule?
A: 21%

Q: What about the “Exudate volume” value (Rats [8]; 100mg/kg orally 1 hour prior to and 1 hour post induction) of the same molecule?
A: 0.53 ± 0.05 mL

Q: And the decrease exudate volume (Rats [8]; 100mg/kg)?
A: 44%

Q: What about the “effects on blood pressure and on the cardiovascular system” value (Anaesthetized Rat) of the same molecule?
A: absence of effects

Q: What about the gastric damage (Cynomolgous monkey) of the same molecule?
A: absence of gastric damage

Q: What about the “increase in bicarbonate production” value [9] of the same molecule?
A: 67%

Q: What about the Carcinogenesis (rat [10]) of the same molecule?
A: innocuity

Q: What about the “%inhibition” value (gastric PGE2; gastric PGE2 versus controls) of the same molecule?
A: 69.9%

Q: And the “PGE2 (ngtg^Δ tissue)±S.E.” value (gastric PGE2; gastric tissue, rat, controls 108.7±23.9)?
A: 32.7±8.5 nanograms for gram of tissue
